Results on five molecules are retold here after US12029797B2, “Fatty acid derivative labeled with positron-emitting radionuclide” (ASTELLAS PHARMA INC., priority 2018, dated 2024).

Assay type in all cases: in vivo
Series [1] has as its system normal cynomolgus monkeys. In words: PET test using normal cynomolgus monkey (SUV in heart muscle and bone ROI). To be noted: for SUV (Bone): bone ROI (near the spine), n.d. = target organ cannot be confirmed in the image, ROI cannot be set; for accumulation to the heart muscle compared to [^18F]FTO / non-specific accumulation to the bone compared to [^18F]FTO: cynomolgus monkey PET, result in words; for SUV (Heart muscle): heart muscle ROI, about 300 MBq lower extremity vein, male cynomolgus monkey. From the text: Solutions containing each compound prepared in Example 1 (7-[^18F]FTO), Example 2 (6-[^18F]FTO), Reference Example 4 ([^18F]FTO), Reference Example 5 (15-[^18F]FTO), and Reference Example 6 (17-[^18F]FTO) were used to perform a heart contrast PET test using normal cynomolgus monkeys.
For performing non-invasive PET imaging, in a state in which a male cynomolgus monkey was anesthetized with inhalation anesthetic isoflurane, the monkey was held at a supine body position on a PET camera SHR17000 (manufactured by Hamamatsu Photonics K.K.), the solution containing each compound (about 300 MBq) was administered from the lower extremity vein, and continuous imaging was performed for 180 minutes or 240 minutes after the administration. The PET images were reconstructed by dynamic row-action maximum likelihood algorithm (DRAMA) and average images are obtained every 20 minutes. Then, the region of interest (ROI) was set in the heart muscle region or bone (near the spine), and the accumulation (standardized uptake value (SUV)) of each compound was calculated as {radioactivity count in the ROI (MBq/cc)/[dose (MBq)/body weight (g)]}.
The SUV values quantified by setting the ROI for the heart muscle and the bone of each compound are shown in Tables 6 and 7 as SUV (heart muscle) and SUV (bone). […] A case where the target organ cannot be confirmed in the image and the ROI cannot be set is denoted as n.d, and a case where measurement is not performed is denoted as n.t. In addition, MIP (Maximum Intensity Projection) PET images 60 minutes and 240 minutes after the administration of the compounds of Reference Example 4 ([^18F]FTO) and Example 1 (7-[^18F]FTO) are shown in FIG. 1.

In the next series the test system is DBA2 mouse. In words: PET test using normal mouse; radioactivity of isolated heart and femur by gamma counter. Conditions: for SUV Femur: isolated femur; for SUV Femur / SUV Heart: 120 minutes after administration, about 10 MBq tail vein, male DBA2 mouse, gamma counter, average ± standard error of 5 cases; for SUV Heart: isolated heart. On the procedure:
A whole body contrast PET test was performed using the solution containing the compound of Example 1 (7-[^18F]FTO) or Reference Example 4 ([^18F]FTO) using a DBA2 mouse.
For performing non-invasive PET imaging, in a state in which a male DBA2 mouse was anesthetized with the inhalation anesthetic isoflurane, the mouse was held in a supine body position on a PET camera Inveon (manufactured by Siemens), the solution containing each compound (about 10 MBq) was administered from the tail vein, and after 90 minutes from the administration, PET imaging was performed for 5 minutes. The PET image was reconstructed and then image processing was performed. The heart and femur were isolated 120 minutes after the administration, and the amount of radioactivity was measured with a gamma counter 2480 WIZARD^2 (manufactured by PerkinElmer Inc.). The accumulation (SUV) of each compound was calculated as {radioactivity count (MBq/cc)/[dose (MBq)/body weight (g)] in the target organ}.

Series [2] relates to myocardial infarction model rat. In words: PET test using model rat with myocardial infarction by coronary artery ligation. Conditions: male SD rat, about 10 MBq tail vein, 20 minutes after administration, versus untreated rat. The method, then: A myocardial infarction model was prepared by coronary artery ligation using SD rats, and a thoracic contrast PET test was performed using the solution containing the compound of Example 1 (7-[^18F]FTO).
In a state in which an untreated rat or a model rat with myocardial infarction was anesthetized with the inhalation anesthetic isoflurane using a male SD rat, the rat was held in a supine body position on a PET camera Inveon (manufactured by Siemens), and the solution containing the compound (about 10 MBq) was administered from the tail vein. After 20 minutes from the administration, PET imaging was performed for 5 minutes. The PET image was reconstructed and then image processing was performed.

Where [3] appears, read: 20 Minutes after administration.
Setting [4] is: 60 Minutes after administration.
Where [5] appears, read: 120 Minutes after administration.
The mark [6] stands for this setting: 240 Minutes after administration.
Setting [7] is: mouse, extracted organs, result in words.

SMILES strings stand for the structures. “Also recorded” adds a separate entry of the source.

Take `CC([18F])CCCCCC/C=C\CCCCSCCC(=O)O` (stereo not shown) [Reference Example 6, 3-{[(5Z)-13-[^18F]fluorotetradeca-5-en-1-yl]sulfanyl}propanoic acid]: the “SUV (Bone)” value in series [1] (setting [3]) is on record as 1.11; in series [1] (setting [4]), 1.28; in series [1] (setting [5]), 1.94; in series [1] (setting [6]) it was 3.23. The “accumulation to the heart muscle compared to [^18F]FTO” value in series [1] is “slightly reduced”. Moreover, the “non-specific accumulation to the bone compared to [^18F]FTO” value in series [1] (listed as 17-[^18F]FTO) is listed as “equivalent or reduced; also recorded: the accumulation in the bone was also observed”. In addition, the “SUV (Heart muscle)” value in series [1] (setting [3]) stood at 5.88; in series [1] (setting [4]), 5.78; in series [1] (setting [5]), 4.86; in series [1] (setting [6]), 2.60.
`CCCCCCCC/C=C\CCC([18F])CSCCC(=O)O` (stereo not shown) [Example 2, 3-{[(5Z)-2-[^18F]fluorotetradeca-5-en-1-yl]sulfanyl}propanoic acid]: in series [1] (setting [3]), the “SUV (Bone)” value was determined as 1.56 and the “SUV (Heart muscle)” value came out at 8.35. In series [1] (setting [4]), the “SUV (Bone)” value amounted to 1.96 and the “SUV (Heart muscle)” value amounted to 7.25. Further, in series [1] (setting [5]), the “SUV (Bone)” value is recorded as 2.49 and the “SUV (Heart muscle)” value amounted to 6.60. Moreover, in series [1], the “accumulation to the heart muscle compared to [^18F]FTO” value is recorded as “further increased” and the “non-specific accumulation to the bone compared to [^18F]FTO” value is on record as “equivalent or reduced”.
With `O=C(O)CCSCCCC/C=C\CCCCCCCC[18F]` [Reference Example 4, 3-{[(5Z)-14-[^18F]fluorotetradeca-5-en-1-yl]sulfanyl}propanoic acid, reference compound], the “SUV (Bone)” value in series [1] (setting [3]) was 1.42 ± 0.10; in series [1] (setting [4]) it was 2.27 ± 0.13; in series [1] (setting [5]) it was 3.82 ± 0.60; in series [1] (setting [6]) it was 6.15 ± 1.02. The “SUV (Heart muscle)” value is reported as 6.45 ± 0.59 in series [1] (setting [3]), 6.54 ± 0.51 in series [1] (setting [4]), 5.90 ± 0.58 in series [1] (setting [5]) and 4.63 ± 0.57 in series [1] (setting [6]). Besides, in the series with DBA2 mouse, the “SUV Femur” value is 2.03 ± 0.32. In addition, the “SUV Heart” value with DBA2 mouse is 1.52 ± 0.25.
With `CCCCCCCC/C=C\CC([18F])CCSCCC(=O)O` (stereo not shown) [Example 1, 3-{[(5Z)-3-[^18F]fluorotetradeca-5-en-1-yl]sulfanyl}propanoic acid], the “accumulation to the heart muscle compared to [^18F]FTO” value in series [1] is “further increased”. In series [1] (listed as 7-[^18F]FTO), the “non-specific accumulation to the bone compared to [^18F]FTO” value is “equivalent or reduced; also recorded: not detected at all”. For the same molecule, the “SUV (Heart muscle)” value in series [1] (setting [3]) came to 8.46; in series [1] (setting [4]), 9.26; in series [1] (setting [5]) it was 8.85; in series [1] (setting [6]), 8.35. The “SUV Femur” value with DBA2 mouse is on record as 0.48 ± 0.04. Moreover, in the series with DBA2 mouse, the “SUV Heart” value is listed as 3.53 ± 0.77. Also, in the series on DBA2 mouse (setting [7]), the “accumulation to the heart compared to Reference Example 4” value was “excellent accumulation to the heart”. The “non-specific accumulation in the bone compared to Reference Example 4” value in the series on DBA2 mouse (setting [7]) was “low non-specific accumulation in the bone”. Besides, the “coronal section PET image of the heart in the myocardial infarction model rat” value in series [2] is given as “the signal was deleted in a part of the elliptical heart”.
Consider `CCCC([18F])CCCC/C=C\CCCCSCCC(=O)O` (stereo not shown) [Reference Example 5, 3-{[(5Z)-11-[^18F]fluorotetradeca-5-en-1-yl]sulfanyl}propanoic acid], for which the “SUV (Bone)” value in series [1] (setting [3]) is on record as 1.27; in series [1] (setting [4]), 1.17; in series [1] (setting [5]) it was 1.54; in series [1] (setting [6]), 2.10. Also, the “accumulation to the heart muscle compared to [^18F]FTO” value in series [1] is reported as “slightly reduced”. Moreover, the “non-specific accumulation to the bone compared to [^18F]FTO” value in series [1] (listed as 15-[^18F]FTO) is “equivalent or reduced; also recorded: the accumulation in the bone was also observed”. The “SUV (Heart muscle)” value in series [1] (setting [3]) turned out to be 4.79; in series [1] (setting [4]) it was 3.60; in series [1] (setting [5]) it was 3.21; in series [1] (setting [6]), 2.78.
